Measurements from US20170044230A1 (USTAV ORGANICKE CHEMIE A BIOCHEMIE AV CR, V.V.I., priority 2014, published 2017).
“Also recorded” adds a separate entry of the source. Blank lines part the entries; values can stand above or below the molecule they belong to. Non-standard residues stand in square brackets, D forms with d. Residues, ends and D or L forms follow the SMILES beside them. *: point of attachment. 1Nal = N[C@@H](Cc1cccc2ccccc12)C(=O)O; Palmitoyl = CCCCCCCCCCCCCCCC(=O)*; Myristoyl = CCCCCCCCCCCCCC(=O)*; Cha = N[C@@H](CC1CCCCC1)C(=O)O; Octanoyl = CCCCCCCC(=O)*; Dap = NC[C@H](N)C(=O)O; Sar = CNCC(=O)O

Columns and labels:
human GHS-R1a receptor = target: T1, human GHS-R1a receptor (Homo sapiens, UniProt Q92847); experiment: Competitive binding studies (displacement of 125I-ghrelin); conditions: relative to ghrelin = 100
T1 construct: purchased Multispan, Hayward, Calif., USA; host or cells: HEK293T cells, isolated plasma membranes
Protocol: Isolated plasma membranes from the HEK293T cells with transfected human GHS-R1a receptor (Multispan, Hayward, Calif., USA) were used. […] Experiments were carried out in duplicates at least three times. Competitive binding curves were plotted using GraphPad Prism Software (San Diego, Calif., USA) while comparing the best fit for single binding sites models.

[1] = test system: rat model of aortic stenosis-induced cachexia; experiment: Rat model of aortic stenosis-induced cachexia; format: in vivo; conditions: 28-day continuous IP infusion
Protocol: Cachexia induced through the aortic stenosis (AS) was made in male Wistar rats, aged 8-9 months (Harlan, Italy). Rats were housed at a temperature of 22±2° C. under a daily cycle of 12/12 h light/dark (light from 6:00) with free access to water and a standard chow diet (Altromin, Germany).
The animals were anesthetized with isoflurane and the aortic stenosis was induced via abdominal incision. […] A steel wire (diameter 0.4 mm) was placed alongside the isolated aorta, both were gently tightened with a stitch (3-0 silk tread), and the wire was removed accordingly. […] Finally, the abdomen was sutured and the animals were kept in standard conditions with free access to regular rat chow and water ad libitum. The Sham group consisted of sham-operated rats prepared by a similar surgical treatment without aortic stenosis.
Mortality was about 5% within 72 h after stenosis. All animal experiments were approved by the Institutional Animal Experimental Ethics Committee of the Institute of Physiology AS CR. […] 2 dissolved in vehicle (2.5 mg/kg of body weight per day) for 28 days (n=5). Food intake and body weight of the rats was monitored every day.

[2] = test system: rat model of subtotal nephrectomy; experiment: Rat model of renal cachexia (subtotal nephrectomy, SNx); format: in vivo
Protocol: Male F344 rats (Harlan, Italy) were housed at a temperature of 22±2° C. under a daily cycle of 12/12 h light/dark (light from 6:00) with free access to water and a standard chow diet St-1 (Mlýn Kocanda, Praha, Czech Republic).
To induce renal dysfunction, 5/6 nephrectomy was performed to anesthetized 8-week-old rats (SNx group, n=14); the control group was sham-operated (Sham group, n=6). Starting from the following day, the rats were SC injected with saline or ghrelin analog no. 2 (5 mg/kg of body weight, dissolved in saline) for 15 days. Food intake and body weight of the rats was monitored every day. At the end of the experiment, blood was collected for determination of pro-inflammatory cytokines using the Milliplex MAP Rat Cytokine/Chemokine Magnetic Bead Panel (Merck-Millipore, St. Charles, Mo., USA).

fed C57BL/6 male mice = experiment: Effect of SC administered ghrelin analogs on food intake; format: in vivo; conditions: for maximal effect at 5 mg/kg on food intake: SC 5 mg/kg, evaluated 480 min after administration; for ED50 (250 min after injection), effect on food intake: SC, fed mice
Protocol: All of the experiments followed the ethical guidelines for animal experiments and Czech Republic law 246/1992 and were approved by the committee for experiments with laboratory animals of the Academy of Sciences of the Czech Republic. Male C57BL/6 mice (Charles River, Germany) were housed at a temperature 22±2° C. under a daily cycle of 12/12 h light/dark (light from 6:00) with free access to water and a standard chow diet St-1 which contained […] of calories from protein, fat and carbohydrate, respectively, and its energy content was 3.4 kcal/g (Mlýn Kocanda, Praha, Czech Republic). Mice were placed into separate cages for one week before experiment, they had free access to water and food pellets. Closely before the experiment, the food pellets were removed from the cages. […] 15 min after the injection, mice were given preweighed food pellets. Food intake was monitored for 8-10 hours at 30-min intervals. Mice had free access to water during the experiment. Experiments were performed at least twice for each tested compound, each experimental group had at least 5 mice.
Data from food intake experiments were analyzed by one-way ANOVA followed by Dunnett's post-hoc test using GraphPad Prism Software (San Diego, Calif., USA), P<0.05 was considered statistically significant. ED50 values were calculated using GraphPad Prism Software as the dose of the tested compound required to elicit half-maximal effect at 250 min after administration of the corresponding compound.
Food intake was monitored for […] after administration of the compounds. ED50 values were determined 250 min after administration. Maximal effect on food intake was evaluated […] after administration of the compounds at a dose of 5 mg/kg of body weight. NT—not tested.

[3] = Pharmacokinetics in vivo after SC administration to mice; conditions: SC 5 mg/kg
Protocol: Mice were housed at a temperature 22±2° C. under a daily cycle of 12/12 h light/dark (light from 6:00) with free access to water and a standard chow diet St-1 (Mlýn Kocanda, Praha, Czech Republic).
4, 6, 14 and 18 at a dose of 5 mg/kg of body weight (0.2 ml/mouse, n=4). Blood was collected from tails before injection and 0.5, 1, 2, 4, 8, 16 and 24 h after injection. Plasma was separated and stored at −20° C.

[4] = 15-day SC 5 mg/kg, vs SNx/saline, 5 mg/kg

T1 sequence (Q92847 whole entry): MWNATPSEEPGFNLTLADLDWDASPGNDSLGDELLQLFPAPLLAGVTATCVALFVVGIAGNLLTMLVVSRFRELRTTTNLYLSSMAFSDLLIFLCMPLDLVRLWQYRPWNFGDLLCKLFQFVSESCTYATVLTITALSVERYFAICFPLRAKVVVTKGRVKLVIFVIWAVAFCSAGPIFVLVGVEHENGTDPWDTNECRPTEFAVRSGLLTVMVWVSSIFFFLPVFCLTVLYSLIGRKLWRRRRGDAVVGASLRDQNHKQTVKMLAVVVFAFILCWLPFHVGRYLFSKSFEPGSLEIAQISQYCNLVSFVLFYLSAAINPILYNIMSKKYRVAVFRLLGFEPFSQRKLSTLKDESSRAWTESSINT

Molecule: CCCCCCCCCCCCCC(=O)NC[C@H](NC(=O)[C@H](CO)NC(=O)CNC)C(=O)N[C@@H](Cc1ccccc1)C(=O)N[C@@H](CC(C)C)C(=O)N[C@@H](CO)C(=O)N1CCC[C@H]1C(=O)N[C@@H](CCC(=O)O)C(=O)N[C@@H](Cc1c[nH]cn1)C(=O)N[C@@H](CCC(N)=O)C(=O)N[C@@H](CCCCN)C(=O)N[C@@H](C)C(=O)N[C@@H](CCC(N)=O)C(=O)N[C@@H](CCC(N)=O)C(=O)N[C@@H](CCCNC(=N)N)C(=O)N[C@@H](CCCCN)C(=O)N[C@@H](CCC(=O)O)C(=O)N[C@@H](CO)C(=O)N[C@@H](CCCCN)C(=O)N[C@@H](CCCCN)C(=O)N1CCC[C@H]1C(=O)N1CCC[C@H]1C(=O)N[C@@H](C)C(=O)N[C@@H](CCCCN)C(=O)N[C@@H](CC(C)C)C(=O)N[C@@H](CCC(N)=O)C(=O)N1CCC[C@H]1C(=O)N[C@@H](CCCNC(=N)N)C(=O)O [Analog 2]
% of ghrelin binding (human GHS-R1a receptor): 54% | cachectic state [1]: improved the cachectic state | body weight of AS rats ([1]; 2.5 mg/kg per day): significantly increased body weight | levels of anti-inflammatory cytokine IL-10 (in words) ([2]; 15-day SC 5 mg/kg, vs SNx/saline): significantly increased | body weight of SNx rats [2, 4]: significantly increased body weight | levels of pro-inflammatory cytokines (in words) [2, 4]: significantly decreased levels of these cytokines; also recorded: reduced blood levels of pro-inflammatory cytokines | cachectic state ([2]; repeated SC administration, SNx rats): improved the cachectic state | maximal effect at 5 mg/kg on food intake (fed C57BL/6 male mice): 202.7 % of Dpr^3ghr | ED50 (250 min after injection), effect on food intake (fed C57BL/6 male mice): 3.80 mg/kg

Molecule: CCCCCCCCCCCCCC(=O)NC[C@H](NC(=O)[C@H](CO)NC(=O)CNC)C(=O)N[C@@H](Cc1ccccc1)C(=O)N[C@@H](CC(C)C)C(=O)N[C@@H](CO)C(=O)N1CCC[C@H]1C(=O)N[C@@H](CCC(=O)O)C(=O)N[C@@H](Cc1c[nH]cn1)C(=O)N[C@@H](CCC(N)=O)C(=O)N[C@@H](CCCCN)C(=O)N[C@@H](C)C(=O)N[C@@H](CCC(N)=O)C(=O)N[C@@H](CCC(N)=O)C(=O)N[C@@H](CCCNC(=N)N)C(=O)N[C@@H](CCCCN)C(=O)N[C@@H](CCC(=O)O)C(=O)N[C@@H](CO)C(=O)O [Analog 18] (H-[Sar]S[Dap](Myristoyl)FLSPEHQKAQQRKES-OH)
stability in vivo compared with ghrelin or Dpr^3ghrelin [3]: significantly more stable than ghrelin or Dpr^3ghrelin

Molecule: (Sar)S(Dpr-N-myr)FLSPEHQKAQQRKESKKPPAKLQPR (XSXFLSPEHQKAQQRKESKKPPAKLQPR; Sar N-terminus; myristoylated Dpr; ghrelin analog) [Analog 2]
IL-1α in blood plasma ([2]; SNx rats, 15-day SC 5 mg/kg): 392.3 ± 49.5 pg/mL | IL-2 in blood plasma ([2]; SNx rats, 15-day SC 5 mg/kg): 28.1 ± 9.3 pg/mL | IL-6 in blood plasma ([2]; SNx rats, 15-day SC 5 mg/kg): 337.3 ± 62.8 pg/mL | IL-10 in blood plasma ([2]; SNx rats, 15-day SC 5 mg/kg): 150.7 ± 6.2 pg/mL | TNF-α in blood plasma ([2]; SNx rats, 15-day SC 5 mg/kg): 32.6 ± 3.8 pg/mL

More lines, main results first:

% of ghrelin binding (human GHS-R1a receptor): 18% | half-life ([3]; male, C57BL/6, mouse, plasma): 420 min
Molecule: CCCCCCCCCCCCCC(=O)NC[C@H](NC(=O)[C@H](CO)NC(=O)CNC)C(=O)N[C@@H](CC1CCCCC1)C(=O)N[C@@H](CC(C)C)C(=O)N[C@@H](CO)C(=O)N1CCC[C@H]1C(=O)N[C@@H](CCC(=O)O)C(=O)N[C@@H](Cc1c[nH]cn1)C(=O)N[C@@H](CCC(N)=O)C(=O)N[C@@H](CCCCN)C(=O)N[C@@H](C)C(=O)N[C@@H](CCC(N)=O)C(=O)N[C@@H](CCC(N)=O)C(=O)N[C@@H](CCCNC(=N)N)C(=O)N[C@@H](CCCCN)C(=O)N[C@@H](CCC(=O)O)C(=O)N[C@@H](CO)C(=O)N[C@@H](CCCCN)C(=O)N[C@@H](CCCCN)C(=O)N1CCC[C@H]1C(=O)N1CCC[C@H]1C(=O)N[C@@H](C)C(=O)N[C@@H](CCCCN)C(=O)N[C@@H](CC(C)C)C(=O)N[C@@H](CCC(N)=O)C(=O)N1CCC[C@H]1C(=O)N[C@@H](CCCNC(=N)N)C(=O)O [Analog 6] (H-[Sar]S[Dap](Myristoyl)[Cha]LSPEHQKAQQRKESKKPPAKLQPR-OH; N-terminus and C-terminus assumed)
maximal effect at 5 mg/kg on food intake (fed C57BL/6 male mice): 276.2 % of Dpr^3ghr | ED50 (250 min after injection), effect on food intake (fed C57BL/6 male mice): 3.05 mg/kg | stability in vivo compared with ghrelin or Dpr^3ghrelin [3]: significantly more stable than ghrelin or Dpr^3ghrelin

% of ghrelin binding (human GHS-R1a receptor): 5%
Molecule: CCCCCCCCCCCCCCCC(=O)NCCCC[C@H](NC(=O)[C@H](C)NC(=O)[C@@H]1CCCN1C(=O)[C@@H]1CCCN1C(=O)[C@H](CCCCN)NC(=O)[C@H](CCCCN)NC(=O)[C@H](CO)NC(=O)[C@H](CCC(=O)O)NC(=O)[C@H](CCCCN)NC(=O)[C@H](CCCNC(=N)N)NC(=O)[C@H](CCC(N)=O)NC(=O)[C@H](CCC(N)=O)NC(=O)[C@H](C)NC(=O)[C@H](CCCCN)NC(=O)[C@H](CCC(N)=O)NC(=O)[C@H](Cc1c[nH]cn1)NC(=O)[C@H](CCC(=O)O)NC(=O)[C@@H]1CCCN1C(=O)[C@H](CO)NC(=O)[C@H](CC(C)C)NC(=O)[C@H](Cc1cccc2ccccc12)NC(=O)[C@H](CNC(=O)CCCCCCC)NC(=O)[C@H](CO)NC(=O)CNC)C(=O)N[C@@H](CC(C)C)C(=O)N[C@@H](CCC(N)=O)C(=O)N1CCC[C@H]1C(=O)N[C@@H](CCCNC(=N)N)C(=O)O [Analog 9] (H-[Sar]S[Dap](Octanoyl)[1Nal]LSPEHQKAQQRKESKKPPAK(Palmitoyl)LQPR-OH; N-terminus and C-terminus assumed)
maximal effect at 5 mg/kg on food intake (fed C57BL/6 male mice): 171.1 % of Dpr^3ghr

% of ghrelin binding (human GHS-R1a receptor): 47%
Molecule: CCCCCCCC(=O)NC[C@H](NC(=O)[C@H](CO)NC(=O)CNC)C(=O)N[C@@H](Cc1ccc(Cl)c(Cl)c1)C(=O)N[C@@H](CC(C)C)C(=O)N[C@@H](CO)C(=O)N1CCC[C@H]1C(=O)N[C@@H](CCC(=O)O)C(=O)N[C@@H](Cc1c[nH]cn1)C(=O)N[C@@H](CCC(N)=O)C(=O)N[C@@H](CCCCN)C(=O)N[C@@H](C)C(=O)N[C@@H](CCC(N)=O)C(=O)N[C@@H](CCC(N)=O)C(=O)N[C@@H](CCCNC(=N)N)C(=O)N[C@@H](CCCCN)C(=O)N[C@@H](CCC(=O)O)C(=O)N[C@@H](CO)C(=O)N[C@@H](CCCCN)C(=O)N[C@@H](CCCCN)C(=O)N1CCC[C@H]1C(=O)N1CCC[C@H]1C(=O)N[C@@H](C)C(=O)N[C@@H](CCCCN)C(=O)N[C@@H](CC(C)C)C(=O)N[C@@H](CCC(N)=O)C(=O)N1CCC[C@H]1C(=O)N[C@@H](CCCNC(=N)N)C(=O)O [Analog 13]
maximal effect at 5 mg/kg on food intake (fed C57BL/6 male mice): 92.9 % of Dpr^3ghr

% of ghrelin binding (human GHS-R1a receptor): 169%
Molecule: CCCCCCCC(=O)NC[C@H](NC(=O)[C@H](CO)NC(=O)CN)C(=O)N[C@@H](Cc1ccccc1)C(=O)N[C@@H](CC(C)C)C(=O)N[C@@H](CO)C(=O)N1CCC[C@H]1C(=O)N[C@@H](CCC(=O)O)C(=O)N[C@@H](Cc1c[nH]cn1)C(=O)N[C@@H](CCC(N)=O)C(=O)N[C@@H](CCCCN)C(=O)N[C@@H](C)C(=O)N[C@@H](CCC(N)=O)C(=O)N[C@@H](CCC(N)=O)C(=O)N[C@@H](CCCNC(=N)N)C(=O)N[C@@H](CCCCN)C(=O)N[C@@H](CCC(=O)O)C(=O)N[C@@H](CO)C(=O)N[C@@H](CCCCN)C(=O)N[C@@H](CCCCN)C(=O)N1CCC[C@H]1C(=O)N1CCC[C@H]1C(=O)N[C@@H](C)C(=O)N[C@@H](CCCCN)C(=O)N[C@@H](CC(C)C)C(=O)N[C@@H](CCC(N)=O)C(=O)N1CCC[C@H]1C(=O)N[C@@H](CCCNC(=N)N)C(=O)O [Dpr^3ghrelin, reference compound]
maximal effect at 5 mg/kg on food intake (fed C57BL/6 male mice): 100 % of Dpr^3ghr | ED50 (250 min after injection), effect on food intake (fed C57BL/6 male mice): 0.82 mg/kg
